From patent US5063243A, “Derivative of caffeic acid and pharmaceutical composition containing the same” (Suntory, Ltd., priority 1988, dated 1991)

What was measured:
Format in all cases: biochemical
[1] = biological target: T1, 12-lipoxygenase (Rattus norvegicus, UniProt F1LQ70); experiment: 12-lipoxygenase inhibitory activity, Method 3 (rat platelet soluble fraction, 12-HETE production); settings: 5 min, sample compound 10 μM, arachidonic acid 40 μM, 5 minutes at 37° C., control without sample compound = 100%, read-out: production index of 12-HETE, Method 3 (%)
T1 construct: Washed platelet was prepared in the usual way; from tissue; host or cells: rat blood platelets (Method 1: washed platelets; Method 2: frozen, thawed and ultrasonified platelets; Method 3: platelet soluble fraction after freeze-thaw and centrifugation)
T1 sequence (F1LQ70 1-663): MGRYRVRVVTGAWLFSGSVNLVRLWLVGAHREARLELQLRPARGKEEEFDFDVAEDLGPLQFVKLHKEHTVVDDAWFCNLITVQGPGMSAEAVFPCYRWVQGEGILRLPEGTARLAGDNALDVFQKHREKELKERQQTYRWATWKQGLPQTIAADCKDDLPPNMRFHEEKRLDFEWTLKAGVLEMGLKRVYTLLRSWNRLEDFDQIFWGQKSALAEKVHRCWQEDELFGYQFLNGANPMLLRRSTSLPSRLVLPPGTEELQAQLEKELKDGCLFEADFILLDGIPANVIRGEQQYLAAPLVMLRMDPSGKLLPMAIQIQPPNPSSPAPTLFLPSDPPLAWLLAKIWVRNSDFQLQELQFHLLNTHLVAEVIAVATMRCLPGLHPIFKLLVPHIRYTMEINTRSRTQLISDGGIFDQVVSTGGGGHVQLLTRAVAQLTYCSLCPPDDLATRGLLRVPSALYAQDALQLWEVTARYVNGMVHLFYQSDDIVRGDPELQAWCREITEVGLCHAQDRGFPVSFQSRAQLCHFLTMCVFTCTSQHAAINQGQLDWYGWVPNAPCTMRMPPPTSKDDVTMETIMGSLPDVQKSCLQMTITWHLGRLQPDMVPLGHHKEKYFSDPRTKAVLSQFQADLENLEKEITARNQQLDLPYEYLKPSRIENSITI
Procedure: (§1) The 12-lipoxygenase inhibitory activity of the compounds of the present invention was measured by conducting the three types of pharmacological tests described below.
The platelet-rich plasma obtained in the same way as described in Method 2 was washed successively with isotonic buffer solution (A) and isotonic buffer solution (B) [134 mM NaCl, 5 mM D-glucose, 0.1 mM DETA, 0.1 mM EGTA, 15 mM Tris-HCl (pH=7.4)] in that order, and suspended in a hypotonic buffer solution (C) [25 mM Tris-HCl (pH=7.7)]. The suspension was treated by a "freeze-thaw" procedure three times and centrifuged at 10500× g for 60 minutes. An aliquot of the supernatant (platelet soluble fraction) was used as the enzyme solution. To the hypotonic buffer solution (C) were added 1 mM GSH, [^14 C]arachidonic acid (0.025 μCi) (final concentration: 40 μM), the sample compound (final concentration: 10 μM) and the enzyme solution (50 μg protein) and the mixture was reacted for 5 minutes at 37° C. The index of 12-lipoxygenase inhibitory activity was obtained in the same way as described in Method 2.
(§2) The production indexes of 12-HETE under the inhibitory influence of the compounds of the present invention are shown in Table 2, where the production amount of the control experiment (in the absence of the sample compound) is 100%.

[2] = biological target: T1, 12-lipoxygenase; experiment: 12-lipoxygenase inhibitory activity, Method 2 (ultrasonified rat platelet enzyme solution, 12-HETE production); settings: 5 min, sample compound 1 μM, arachidonic acid 4.3 μM, 5 minutes at 37° C., control without sample compound = 100%, read-out: production index of 12-HETE, Method 2 (%)
Procedure: The 12-lipoxygenase inhibitory activity of the compounds of the present invention was measured by conducting the three types of pharmacological tests described below. Citrated blood was collected from the heart of a rat and platelet-rich plasma was prepared in the usual way. The plasma was washed twice with isotonic buffer solution (A) [134 mM NaCl, 5 mM D-glucose, 1 mM EDTA, 1 mM EGTA, 15 mM Tris-HCl (pH=7.4)], frozen and stored at -80° C. It was thawed before use, ultrasonified in ice water and used as the enzyme solution. To the isotonic buffer solution (A) were added 1 mM GSH, the sample compound (final concentration: 1 μM) and the enzyme solution (300 to 500 μg protein) and the mixture was pre-incubated for 5 minutes at 37° C.; then [^14 C]arachidonic acid (0.05 μCi) (final concentration: 4.3 μM) was further added and reacted for 5 minutes. […] The reduction in 12-HETE production was used as the index of 12-lipoxygenase inhibitory activity.

[3] = biological target: T1, 12-lipoxygenase; experiment: 12-lipoxygenase inhibitory activity, Method 1 (washed rat platelet, 12-HETE production); settings: sample compound 10 μM, 3 to 5 minutes at 37° C., control without sample compound = 100%, read-out: production index of 12-HETE, Method 1 (%)
Procedure: as §1
Citrated blood was collected from the abdominal aorta of a rat. Washed platelet was prepared in the usual way, diluted with phosphate buffer (pH=8.0) containing 0.45% NaCl and used as the enzyme solution. To the solution were added the sample compound (10 μM), [^14 C]arachidonicacid (0.2 μCi) and arachidonic acid (3 μg) and the mixture was reacted for 3 to 5 minutes at 37° C. The reaction mixture was developed by thin layer chromatography and 12-HETE was identified by a radio chromato scanner. The reduction in 12-HETE production which resulted was used as the index of 12-lipoxygenase inhibitory activity.
as §2

| SMILES | activity at 10 µM [1] | activity at 1 µM [2] | activity at 10 µM [3] |
| --- | --- | --- | --- |
| O=c1cc(-c2ccccc2)oc2cc(O)c(O)c(O)c12 [Baicalein, baicalein, reference compound] | 22.7% | 9.8% | 27% |
| CCOC(=O)C(C#N)=Cc1ccc(O)c(O)c1 [Compound No. 1, Ethyl 2-cyano-3-(3,4-dihydroxyphenyl)-2-propenoate] | – | – | 38.1% |
| N#CC(=Cc1ccc(O)c(O)c1)C(=O)OCCc1ccccc1 [Compound No. 9, Phenethyl 2-cyano-3-(3,4-dihydroxyphenyl)-2-propenoate] | 25.1% | 10% | – |
| CC(C)OC(=O)C(C#N)=Cc1ccc(O)c(O)c1 [Compound No. 6, isopropyl 2-cyano-3-(3,4-dihydroxyphenyl)-2-propenoate] | – | – | 31.4% |
| N#CC(=Cc1ccc(O)c(O)c1)C(=O)OCCCCc1ccccc1 [compound 11, Phenylbutyl 2-cyano-3-(3,4-dihydroxyphenyl)-2-propenoate] | – | 14.2% | – |
| N#CC(=Cc1ccc(O)c(O)c1)C(=O)OCCCc1ccccc1 [compound 10, Phenylpropyl 2-cyano-3-(3,4-dihydroxyphenyl)-2-propenoate] | – | 12.1% | – |
| COC(=O)C(C#N)=Cc1ccc(O)c(O)c1 [Compound No. 5, methyl 2-cyano-3-(3,4-dihydroxyphenyl)-2-propenoate] | – | – | 36% |

More lines, now with the values ahead:

| activity at 10 µM [1] | activity at 1 µM [2] | activity at 10 µM [3] | SMILES |
| --- | --- | --- | --- |
| 19.1% | – | – | COc1ccccc1CCOC(=O)C(C#N)=Cc1ccc(O)c(O)c1 [compound 14, 2-Methoxyphenethyl 2-cyano-3-(3,4-dihydroxyphenyl)-2-propenoate] |
| 19.5% | – | – | COc1ccc(CCOC(=O)C(C#N)=Cc2ccc(O)c(O)c2)cc1 [compound 13, 4-Methoxyphenethyl 2-cyano-3-(3,4-dihydroxyphenyl)-2-propenoate] |
| – | 13.2% | – | N#CC(=Cc1ccc(O)c(O)c1)C(=O)OCC=Cc1ccccc1 [compound 17, 3-Phenyl-2-propenyl 2-cyano-3-(3,4-dihydroxyphenyl)-2-propenoate] |
| – | 8.7% | – | N#CC(=Cc1ccc(O)c(O)c1)C(=O)OCCc1cccs1 [compound 15, 2-(2-Thienyl)ethyl 2-cyano-3-(3,4-dihydroxyphenyl)-2-propenoate] |
| – | 8.5% | – | N#CC(=Cc1ccc(O)c(O)c1)C(=O)OCCOc1ccccc1 [compound 18, 2-Phenoxyethyl 2-cyano-3-(3,4-dihydroxyphenyl)-2-propenoate] |
